The values that follow come from patent US5223517A, “Heterocyclically substituted cycloalkano[b]-indolesulphonamides” (Bayer Aktiengesellschaft, priority 1990, dated 1993).

By IC50 is commonly meant the concentration that inhibits the measured activity by half.

Structures can show the parent of a compound that is named as a salt.

The test system of one experiment is platelet aggregation (platelet-rich citrate plasma, collagen). Briefly: platelet aggregation-inhibiting action (TAI), collagen-induced, platelet-rich plasma, turbidometric method. It counts as cell-based. The conditions noted are these: Homo sapiens, 0.1 h, range of the minimum effective concentration, PRP, 37° C., result after 6 minutes, read-out: TAI threshold concentration. An excerpt: Blood from healthy subjects of both sexes was used for the determination of the platelet aggregation-inhibiting action. As an anticoagulant, one part of 3.8% strength aqueous sodium citrate solution was admixed to 9 parts of blood. Platelet-rich citrate plasma (PRP)^1 is obtained from this blood by means of centrifugation (Jurgens/Beller, Klinische Methoden der Blutgerinnungsanalyse (Clinical Methods of Blood Coagulation Analysis); Thieme Verlag, Stuttgart, 1959).
For these investigations, 0.8 ml of PRP and 0.1 ml of the active compound solution were preincubated in a water bath at 37° C. The platelet aggregation was then determined by the turbidometric method (Born, G. V. R., J. Physiol. (London), 162, 67, 1962) in an aggregometer at 37° C. (Therapeutische Berichte 47, 80-86, 1975). To this end, 0.1 ml of collagen, an aggregation-inducing agent, was added to the preincubated sample. The change in the optical density in the sample of PRP^1 was recorded during a period of 6 minutes and the results was determined after 6 minutes. To do this, the percentage inhibition is calculated compared to the control.
The range of the minimum effective concentration is given as the threshold concentration.
As to `O=C(O)CCn1c2c(c3cc(CCc4cccnc4)ccc31)CC(NS(=O)(=O)c1ccc(F)cc1)CC2` (stereo not shown) [Example 17], the minimal effective concentration is 0.03 to 0.1 µg/mL.

As for `O=C(O)CCn1c2c(c3c(Cc4cccnc4)cccc31)CC(NS(=O)(=O)c1ccc(F)cc1)CC2` (stereo not shown) [Example 18], the minimal effective concentration fell in the range of 0.3 to 1 µg/mL.

On to `O=C(O)CCn1c2c(c3cc(C(=O)CCc4cccnc4)ccc31)CC(NS(=O)(=O)c1ccc(F)cc1)CC2` (stereo not shown) [Example 20], for which the minimal effective concentration was in the range of 0.03 to 0.1 µg/mL.

For `O=C(O)CCn1c2c(c3cc(OCc4ccccn4)ccc31)CC(N(Cc1ccccn1)S(=O)(=O)c1ccc(F)cc1)CC2` (stereo not shown) [Example 25], the minimal effective concentration fell in the range of 0.03 to 0.1 µg/mL.

The target of a further experiment is T1, thromboxane synthase (Homo sapiens, UniProt P24557).
T1 construct: 1 ml of the platelet suspension and 0.01 ml of the test preparation in 10% DMSO are incubated at 37° C. for 2 min; endogenous in cells; host or cells: washed human platelets from blood of healthy donors
T1 sequence (P24557 1-533): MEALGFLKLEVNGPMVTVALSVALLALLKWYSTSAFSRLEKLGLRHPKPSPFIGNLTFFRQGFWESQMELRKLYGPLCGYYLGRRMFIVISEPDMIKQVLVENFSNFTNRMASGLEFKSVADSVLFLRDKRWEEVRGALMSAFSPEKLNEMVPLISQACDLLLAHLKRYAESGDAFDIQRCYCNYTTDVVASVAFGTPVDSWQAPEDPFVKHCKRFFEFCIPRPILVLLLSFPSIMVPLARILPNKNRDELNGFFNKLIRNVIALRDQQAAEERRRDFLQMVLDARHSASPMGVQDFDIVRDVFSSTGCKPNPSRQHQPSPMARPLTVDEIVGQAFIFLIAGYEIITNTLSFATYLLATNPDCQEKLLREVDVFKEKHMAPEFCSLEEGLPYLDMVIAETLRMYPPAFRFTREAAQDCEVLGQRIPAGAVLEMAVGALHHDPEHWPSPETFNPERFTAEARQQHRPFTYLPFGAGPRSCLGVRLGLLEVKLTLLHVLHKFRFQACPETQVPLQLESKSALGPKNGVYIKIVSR
Briefly: Measurement of the thromboxane synthase in washed human platelets. In kind it is cell-based. Particulars: 3H-arachidonic acid, 37° C., 10 min, read-out: IC50 (50% inhibition of thromboxane formation compared to the control).
Regarding `O=C(O)CCn1c2c(c3cc(Cc4cccnc4)ccc31)CC(NS(=O)(=O)c1ccc(F)cc1)CC2` (stereo not shown) [Example 11, 9-(2-Carboxyethyl)-3-(4-fluorophenylsulphonamido)-6-(3-pyridyl-methyl)-1,2,3,4-tetrahydro-carbazole hydrochloride], the IC50 was 0.2 µM.

Consider `O=C(O)CCn1c2c(c3cc(CCc4cccnc4)ccc31)CC(NS(=O)(=O)c1ccc(F)cc1)CC2` (stereo not shown) [Example 17], for which the IC50 worked out at 1 µM.

Consider `O=C(O)CCn1c2c(c3ccc(-c4cccnc4)cc31)CC(NS(=O)(=O)c1ccc(F)cc1)CC2` (stereo not shown) [Example 24], for which the IC50 was found to be 0.1 µM.
